Organism: Rattus norvegicus
Test: Open TG-GATES - Regimen: Single
Type: toxicity, organism-based, Sprague-Dawley
Design: regimen Single, gender Male, age 6 weeks
Conditions: in vivo, iv, route intravenous injection; for MCV / Mono / Neu / PT / Plat / RBC / Ret / WBC / APTT / Bas / Eos / Fbg / Ht / Lym / Hb / MCH / MCHC: tissue Blood; for KIDNEY_L / KIDNEY_R / KIDNEY_TOTAL: tissue Kidney; for LIVER: tissue Liver
[1] = 30 mg/kg, 3 h, dose level Middle
[2] = 30 mg/kg, 3 h, tissue Plasma, dose level Middle
[3] = 30 mg/kg, 6 h, dose level Middle
[4] = 30 mg/kg, 6 h, tissue Plasma, dose level Middle
[5] = 30 mg/kg, 9 h, dose level Middle
[6] = 30 mg/kg, 9 h, tissue Plasma, dose level Middle
[7] = 30 mg/kg, 24 h, dose level Middle
[8] = 30 mg/kg, 24 h, tissue Plasma, dose level Middle
[9] = 100 mg/kg, 3 h, dose level High
[10] = 100 mg/kg, 3 h, tissue Plasma, dose level High
[11] = 100 mg/kg, 6 h, dose level High
[12] = 100 mg/kg, 6 h, tissue Plasma, dose level High
[13] = 100 mg/kg, 9 h, dose level High
[14] = 100 mg/kg, 9 h, tissue Plasma, dose level High
[15] = 100 mg/kg, 24 h, dose level High
[16] = 100 mg/kg, 24 h, tissue Plasma, dose level High

Sequence: GENTAMICIN
- MCV [1]: 62.9 fL
- Mono [1]: 3.2%
- Neu [1]: 16.4%
- PT [1]: 16.2 s
- Plat [1]: 131.2 x10_4/uL
- RBC [1]: 626.2 x10_4/ul
- Ret [1]: 6.5%
- WBC [1]: 81.8 x10_2/uL
- KIDNEY_L [1]: 0.9 g
- KIDNEY_R [1]: 0.9 g
- KIDNEY_TOTAL [1]: 1.8 g
- LIVER [1]: 9.6 g
- ALT [2]: 42.6 IU/L
- AST [2]: 82.2 IU/L
- CRE [2]: 0.1 mg/dL
- DBIL [2]: 0.004 mg/dL
- GLC [2]: 182 mg/dL
- IP [2]: 8.1 mg/dL
- K [2]: 4.3 meq/L
- LDH [2]: 251.4 IU/L
- PL [2]: 133.2 mg/dL
- RALB [2]: 2.9 g/dL
- TBIL [2]: 0.02 mg/dL
- TC [2]: 62.4 mg/dL
- TG [2]: 99.2 mg/dL
- TP [2]: 5.3 g/dL
- gamma-GTP [2]: 1.4 IU/L
- TERMINAL_BW [3]: 210.3 g
- APTT [3]: 23.2 s
- Bas [3]: 0%
- Eos [3]: 0.4%
- Fbg [3]: 291.6 mg/dL
- Ht [3]: 39.5%
- Lym [3]: 77.6%
- MCV [3]: 62 fL
- Mono [3]: 3.4%
- PT [3]: 16 s
- Plat [3]: 119.1 x10_4/uL
- RBC [3]: 636.4 x10_4/ul
- Ret [3]: 6.3%
- WBC [3]: 117 x10_2/uL
- KIDNEY_L [3]: 0.9 g
- KIDNEY_R [3]: 1 g
- KIDNEY_TOTAL [3]: 1.9 g
- LIVER [3]: 8.7 g
- ALP [4]: 1316 IU/L
- ALT [4]: 35 IU/L
- AST [4]: 68.8 IU/L
- BUN [4]: 9.4 mg/dL
- CRE [4]: 0.1 mg/dL
- DBIL [4]: 0.002 mg/dL
- GLC [4]: 177.2 mg/dL
- IP [4]: 9 mg/dL
- K [4]: 4.3 meq/L
- PL [4]: 139.4 mg/dL
- RALB [4]: 3 g/dL
- TBIL [4]: 0.024 mg/dL
- TC [4]: 74.6 mg/dL
- TG [4]: 84.4 mg/dL
- TP [4]: 5.3 g/dL
- gamma-GTP [4]: 1 IU/L
- TERMINAL_BW [5]: 213 g
- APTT [5]: 24 s
- Bas [5]: 0%
- Eos [5]: 1%
- Fbg [5]: 294.6 mg/dL
- Hb [5]: 13 g/dL
- Ht [5]: 38.6%
- Lym [5]: 77.4%
- MCH [5]: 21 pg
- MCHC [5]: 33.6%
- Mono [5]: 3%
- Neu [5]: 17.2%
- PT [5]: 16.2 s
- Plat [5]: 122.8 x10_4/uL
- RBC [5]: 617.4 x10_4/ul
- Ret [5]: 5.8%
- WBC [5]: 109.5 x10_2/uL
- KIDNEY_L [5]: 1 g
- KIDNEY_R [5]: 1 g
- KIDNEY_TOTAL [5]: 2 g
- LIVER [5]: 8.5 g
- ALP [6]: 1266.6 IU/L
- ALT [6]: 34.4 IU/L
- AST [6]: 72 IU/L
- BUN [6]: 10.8 mg/dL
- CRE [6]: 0.1 mg/dL
- DBIL [6]: 0.002 mg/dL
- GLC [6]: 175.2 mg/dL
- IP [6]: 9.5 mg/dL
- K [6]: 4.4 meq/L
- LDH [6]: 134.6 IU/L
- Na [6]: 144.2 meq/L
- PL [6]: 134.2 mg/dL
- RALB [6]: 2.9 g/dL
- TBIL [6]: 0.022 mg/dL
- TC [6]: 73.8 mg/dL
- TG [6]: 49.4 mg/dL
- TP [6]: 5.2 g/dL
- gamma-GTP [6]: 1.6 IU/L
- TERMINAL_BW [7]: 228.1 g
- APTT [7]: 22.7 s
- Bas [7]: 0%
- Eos [7]: 0.8%
- Fbg [7]: 295.4 mg/dL
- Hb [7]: 12.9 g/dL
- Ht [7]: 38%
- Lym [7]: 76.6%
- MCHC [7]: 34%
- MCV [7]: 61.3 fL
- Mono [7]: 4%
- Neu [7]: 18%
- PT [7]: 16.4 s
- Plat [7]: 115.7 x10_4/uL
- RBC [7]: 621.4 x10_4/ul
- Ret [7]: 6%
- WBC [7]: 112.3 x10_2/uL
- KIDNEY_L [7]: 1 g
- KIDNEY_R [7]: 1 g
- KIDNEY_TOTAL [7]: 2 g
- LIVER [7]: 10.2 g
- ALP [8]: 1367.4 IU/L
- ALT [8]: 41.4 IU/L
- BUN [8]: 15.6 mg/dL
- CRE [8]: 0.2 mg/dL
- DBIL [8]: 0.004 mg/dL
- IP [8]: 7.2 mg/dL
- K [8]: 4.1 meq/L
- LDH [8]: 137.2 IU/L
- PL [8]: 153.2 mg/dL
- RALB [8]: 3 g/dL
- TBIL [8]: 0.02 mg/dL
- TC [8]: 81.4 mg/dL
- TG [8]: 101.6 mg/dL
- TP [8]: 5.4 g/dL
- gamma-GTP [8]: 1 IU/L
- TERMINAL_BW [9]: 221.2 g
- APTT [9]: 22.7 s
- Bas [9]: 0%
- Eos [9]: 1%
- Fbg [9]: 284 mg/dL
- Ht [9]: 37.3%
- Lym [9]: 72%
- MCV [9]: 63.9 fL
- Mono [9]: 3%
- Neu [9]: 23.3%
- Plat [9]: 123.5 x10_4/uL
- RBC [9]: 584 x10_4/ul
- Ret [9]: 6.4%
- WBC [9]: 86 x10_2/uL
- KIDNEY_L [9]: 1 g
- KIDNEY_R [9]: 1 g
- KIDNEY_TOTAL [9]: 1.9 g
- LIVER [9]: 9.9 g
- ALP [10]: 1392.3 IU/L
- ALT [10]: 41.3 IU/L
- AST [10]: 82.7 IU/L
- BUN [10]: 13 mg/dL
- CRE [10]: 0.1 mg/dL
- Ca [10]: 11 mg/dL
- DBIL [10]: 0.0067 mg/dL
- GLC [10]: 177.3 mg/dL
- IP [10]: 7.9 mg/dL
- K [10]: 4.1 meq/L
- LDH [10]: 155.3 IU/L
- PL [10]: 129.7 mg/dL
- RALB [10]: 2.8 g/dL
- TBIL [10]: 0.03 mg/dL
- TC [10]: 69.3 mg/dL
- TG [10]: 71.7 mg/dL
- TP [10]: 5.2 g/dL
- gamma-GTP [10]: 1 IU/L
- TERMINAL_BW [11]: 211.7 g
- APTT [11]: 24.2 s
- Bas [11]: 0%
- Eos [11]: 0.8%
- Fbg [11]: 292 mg/dL
- Ht [11]: 39.4%
- Lym [11]: 74.2%
- MCH [11]: 21 pg
- MCHC [11]: 33.9%
- MCV [11]: 61.9 fL
- Mono [11]: 3.6%
- Neu [11]: 20.6%
- PT [11]: 15.9 s
- Plat [11]: 126.2 x10_4/uL
- RBC [11]: 637 x10_4/ul
- Ret [11]: 6.6%
- WBC [11]: 92.6 x10_2/uL
- KIDNEY_L [11]: 0.9 g
- KIDNEY_R [11]: 0.9 g
- KIDNEY_TOTAL [11]: 1.8 g
- LIVER [11]: 8.4 g
- ALP [12]: 1407.2 IU/L
- ALT [12]: 34.8 IU/L
- AST [12]: 67.6 IU/L
- CRE [12]: 0.1 mg/dL
- DBIL [12]: 0.004 mg/dL
- GLC [12]: 176.2 mg/dL
- IP [12]: 9 mg/dL
- K [12]: 4.7 meq/L
- LDH [12]: 165.8 IU/L
- PL [12]: 144.4 mg/dL
- RALB [12]: 2.9 g/dL
- TBIL [12]: 0.02 mg/dL
- TG [12]: 98.6 mg/dL
- TP [12]: 5.2 g/dL
- gamma-GTP [12]: 1.2 IU/L
- TERMINAL_BW [13]: 211.4 g
- APTT [13]: 22.4 s
- Bas [13]: 0%
- Eos [13]: 0.8%
- Fbg [13]: 296.4 mg/dL
- Hb [13]: 12.9 g/dL
- Ht [13]: 38.7%
- Lym [13]: 80.6%
- MCH [13]: 20.6 pg
- MCHC [13]: 33.3%
- MCV [13]: 61.9 fL
- Mono [13]: 3.2%
- Plat [13]: 120.1 x10_4/uL
- RBC [13]: 625.2 x10_4/ul
- Ret [13]: 6.4%
- WBC [13]: 76.1 x10_2/uL
- KIDNEY_L [13]: 0.9 g
- KIDNEY_R [13]: 1 g
- KIDNEY_TOTAL [13]: 1.9 g
- LIVER [13]: 8.6 g
- ALP [14]: 1221 IU/L
- ALT [14]: 30.8 IU/L
- AST [14]: 65.6 IU/L
- BUN [14]: 12.8 mg/dL
- CRE [14]: 0.1 mg/dL
- Ca [14]: 11 mg/dL
- DBIL [14]: 0.002 mg/dL
- GLC [14]: 174.6 mg/dL
- IP [14]: 9.4 mg/dL
- K [14]: 4.7 meq/L
- LDH [14]: 145.2 IU/L
- PL [14]: 144 mg/dL
- RALB [14]: 2.9 g/dL
- TBIL [14]: 0.016 mg/dL
- TC [14]: 77 mg/dL
- TG [14]: 70.4 mg/dL
- TP [14]: 5.3 g/dL
- gamma-GTP [14]: 1 IU/L
- TERMINAL_BW [15]: 225.5 g
- APTT [15]: 23.2 s
- Bas [15]: 0%
- Eos [15]: 1%
- Fbg [15]: 301.2 mg/dL
- Hb [15]: 13.6 g/dL
- Ht [15]: 39.5%
- Lym [15]: 77.4%
- MCHC [15]: 34.4%
- MCV [15]: 60.8 fL
- Mono [15]: 4.8%
- PT [15]: 16.4 s
- Plat [15]: 122.8 x10_4/uL
- RBC [15]: 649.4 x10_4/ul
- Ret [15]: 5.4%
- WBC [15]: 96.8 x10_2/uL
- KIDNEY_L [15]: 1 g
- KIDNEY_R [15]: 1 g
- KIDNEY_TOTAL [15]: 2 g
- LIVER [15]: 9.6 g
- ALP [16]: 1293.2 IU/L
- ALT [16]: 37.8 IU/L
- AST [16]: 66.4 IU/L
- CRE [16]: 0.1 mg/dL
- DBIL [16]: 0.002 mg/dL
- GLC [16]: 186.4 mg/dL
- IP [16]: 7.7 mg/dL
- K [16]: 4.2 meq/L
- LDH [16]: 159.2 IU/L
- PL [16]: 162.4 mg/dL
- RALB [16]: 3.1 g/dL
- TBIL [16]: 0.018 mg/dL
- TC [16]: 82.4 mg/dL
- TG [16]: 110.2 mg/dL
- TP [16]: 5.5 g/dL
- gamma-GTP [16]: 1.2 IU/L
